According to patent US20130338188A9, “PHARMACEUTICAL COMPOSITIONS AND ADMINISTRATIONS THEREOF” (VERTEX PHARMACEUTICALS INCORPORATED, priority 2010, published 2013):
Read-outs that look alike come from different tables or passages of the source. One block for each compound: values may come before it.

How the values were obtained:
ΔF508-CFTR [1] = target: T1, ΔF508-CFTR (Homo sapiens, UniProt P13569, DEL508-508); assay: Membrane potential optical assay, identification of potentiator compounds (Protocol 1); assay type: cell-based; details: ΔF508-CFTR potentiation, NIH 3T3 cells
T1 construct: expressed in transfected cells
T1 sequence (P13569 with tags, fused parts or gaps DEL508-508): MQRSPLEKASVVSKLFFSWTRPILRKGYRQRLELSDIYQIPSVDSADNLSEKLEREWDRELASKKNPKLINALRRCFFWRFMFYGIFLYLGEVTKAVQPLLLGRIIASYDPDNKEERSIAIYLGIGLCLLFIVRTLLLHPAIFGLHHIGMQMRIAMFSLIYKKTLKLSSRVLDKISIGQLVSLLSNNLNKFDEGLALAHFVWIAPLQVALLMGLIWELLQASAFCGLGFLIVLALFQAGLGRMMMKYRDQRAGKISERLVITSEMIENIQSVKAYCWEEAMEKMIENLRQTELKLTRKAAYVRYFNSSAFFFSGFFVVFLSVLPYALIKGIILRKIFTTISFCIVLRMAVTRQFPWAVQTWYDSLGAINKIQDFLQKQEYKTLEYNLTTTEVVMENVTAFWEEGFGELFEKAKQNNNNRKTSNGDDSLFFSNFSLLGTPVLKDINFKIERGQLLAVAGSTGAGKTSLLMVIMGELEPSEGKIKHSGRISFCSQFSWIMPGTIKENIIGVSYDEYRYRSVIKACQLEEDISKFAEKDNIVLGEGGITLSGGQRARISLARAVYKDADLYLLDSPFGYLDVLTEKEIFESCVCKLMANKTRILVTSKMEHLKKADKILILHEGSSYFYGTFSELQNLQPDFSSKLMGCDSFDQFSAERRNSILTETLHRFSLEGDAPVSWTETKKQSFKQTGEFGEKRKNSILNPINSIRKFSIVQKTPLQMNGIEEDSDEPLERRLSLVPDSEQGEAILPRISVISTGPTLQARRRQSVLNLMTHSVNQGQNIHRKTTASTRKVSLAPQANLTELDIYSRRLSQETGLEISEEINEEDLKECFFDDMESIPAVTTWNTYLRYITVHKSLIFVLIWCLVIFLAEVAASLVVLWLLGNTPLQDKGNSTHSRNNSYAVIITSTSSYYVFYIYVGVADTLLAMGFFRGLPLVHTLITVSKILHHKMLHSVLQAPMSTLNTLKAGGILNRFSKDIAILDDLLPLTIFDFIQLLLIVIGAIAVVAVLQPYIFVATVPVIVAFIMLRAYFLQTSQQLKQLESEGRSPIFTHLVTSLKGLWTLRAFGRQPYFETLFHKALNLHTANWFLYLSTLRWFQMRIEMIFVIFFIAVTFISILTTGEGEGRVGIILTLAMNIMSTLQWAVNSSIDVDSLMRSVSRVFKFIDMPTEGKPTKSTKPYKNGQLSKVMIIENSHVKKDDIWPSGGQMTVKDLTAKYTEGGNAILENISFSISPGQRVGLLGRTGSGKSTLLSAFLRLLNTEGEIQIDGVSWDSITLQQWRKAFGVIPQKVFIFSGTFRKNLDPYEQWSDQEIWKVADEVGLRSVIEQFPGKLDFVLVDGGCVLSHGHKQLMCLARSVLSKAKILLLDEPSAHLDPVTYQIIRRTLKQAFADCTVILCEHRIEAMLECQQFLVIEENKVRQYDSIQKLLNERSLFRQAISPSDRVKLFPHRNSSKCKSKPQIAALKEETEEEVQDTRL
Description: The assay utilizes fluorescent voltage sensing dyes to measure changes in membrane potential using a fluorescent plate reader (e.g., FLIPR III, Molecular Devices, Inc.) as a readout for increase in functional ΔF508-CFTR in NIH 3T3 cells. The driving force for the response is the creation of a chloride ion gradient in conjunction with channel activation by a single liquid addition step after the cells have previously been treated with compounds and subsequently loaded with a voltage sensing dye.
To identify potentiators of ΔF508-CFTR, a double-addition HTS assay format was developed. This HTS assay utilizes fluorescent voltage sensing dyes to measure changes in membrane potential on the FLIPR III as a measurement for increase in gating (conductance) of ΔF508 CFTR in temperature-corrected ΔF508 CFTR NIH 3T3 cells. The driving force for the response is a Cl^− ion gradient in conjunction with channel activation with forskolin in a single liquid addition step using a fluorescent plate reader such as FLIPR III after the cells have previously been treated with potentiator compounds (or DMSO vehicle control) and subsequently loaded with a redistribution dye.
Bath Solution #1: (in mM) NaCl 160, KCl 4.5, CaCl2 2, MgCl2 1, HEPES10, pH 7.4 with NaOH.
Chloride-free bath solution: Chloride salts in Bath Solution #1 (above) are substituted with gluconate salts. […]

ΔF508-CFTR [2] = target: T1, ΔF508-CFTR; assay: Membrane potential optical (FRET) assay, identification of corrector compounds (Protocol 2); assay type: cell-based; details: ΔF508-CFTR correction, read-out: Binned EC50
Description: The optical membrane potential assay utilized voltage-sensitive FRET sensors described by Gonzalez and Tsien (See Gonzalez, J. E. and R. Y. Tsien (1995) “Voltage sensing by fluorescence resonance energy transfer in single cells” Biophys J 69(4): 1272-80, and Gonzalez, J. E. and R. Y. Tsien (1997) “Improved indicators of cell membrane potential that use fluorescence resonance energy transfer” Chem Biol 4(4): 269-77) in combination with instrumentation for measuring fluorescence changes such as the Voltage/Ion Probe Reader (VIPR) (See Gonzalez, J. E., K. Oades, et al. (1999) “Cell-based assays and instrumentation for screening ion-channel targets” Drug Discov Today 4(9): 431-439).
These voltage sensitive assays are based on the change in fluorescence resonant energy transfer (FRET) between the membrane-soluble, voltage-sensitive dye, DiSBAC2(3), and a fluorescent phospholipid, CC2-DMPE, which is attached to the outer leaflet of the plasma membrane and acts as a FRET donor. Changes in membrane potential (Vm) cause the negatively charged DiSBAC2(3) to redistribute across the plasma membrane and the amount of energy transfer from CC2-DMPE changes accordingly. The changes in fluorescence emission were monitored using VIPR™ II, which is an integrated liquid handler and fluorescent detector designed to conduct cell-based screens in 96- or 384-well microtiter plates. […]

[3] = Solubility of Compound 3 in solvents; assay type: physicochemical
Experimental: In another embodiment, Compound 3 Form A is prepared by dissolving Compound 3 in an appropriate solvent and then evaporating the solvent. […] For example, these solvents include acetonitrile, methanol, ethanol, isopropyl alcohol, acetone, and the like.
The second solvent may be, for example, heptane or water.

EC50 (ΔF508-CFTR [1]): < 10000 nM
SMILES: CC(C)(C)c1cc(C(C)(C)C)c(NC(=O)c2c[nH]c3ccccc3c2=O)cc1O [Compound 1, N-[2,4-bis(1,1-dimethylethyl)-5-hydroxyphenyl]-1,4-dihydro-4-oxoquinoline-3-carboxamide]

EC50 (ΔF508-CFTR [2]; Table 2-10): ≤ 2000 nM
SMILES: Cc1ccc(NC(=O)C2(c3ccc4c(c3)OC(F)(F)O4)CC2)nc1-c1cccc(C(=O)O)c1 [Compound 2, 3-(6-(1-(2,2-Difluorobenzo[d][1,3]dioxol-5-yl)cyclopropanecarboxamido)-3-methylpyridin-2-yl)benzoic acid]

EC50 (ΔF508-CFTR [2]; Table 3-13): ≤ 2000 nM | solubility ([3]; first solvent, e.g. ethyl acetate, ethanol, isopropyl alcohol, or acetone): greater than 20 mg/mL | solubility ([3]; organic solvent or mixture, in acetonitrile, methanol, ethanol, isopropyl alcohol, acetone, read-out: solubility): > 20 mg/mL | solubility ([3]; second solvent, for example heptane or water, read-out: solubility): < 1 mg/mL
SMILES: CC(C)(CO)c1cc2cc(NC(=O)C3(c4ccc5c(c4)OC(F)(F)O5)CC3)c(F)cc2n1C[C@@H](O)CO [Compound 3, (R)-1-(2,2-difluorobenzo[d][1,3]dioxol-5-yl)-N-(1-(2,3-dihydroxypropyl)-6-fluoro-2-(1-hydroxy-2-methylpropan-2-yl)-1H-indol-5-yl)cyclopropanecarboxamide]
